For one assay, the system named is B. japonicum USDA 110. Kind of assay: LCO production by B. japonicum USDA 110 (butanol extraction, HPLC). The class given is cell-based, Bradyrhizobium japonicum. How it is done:
Cultures of B. japonicum (strain USDA 110) were grown at 28° C. in 600 ml of sterile yeast mannitol medium (YEM) at pH 6.8. The culture was shaken at 150 rpm until an OD620 of 0.4 to 0.6 was achieved (4 to 6 days). When the culture reached this stage, it was divided equally into four flasks (150 mL) and specific concentrations of JA and genistein were added to the cultures.
One hundred and fifty mL of each culture were extracted with 40 mL of the HPLC-grade butanol (Fisher Science Ltd., 112 Colonnade Road, Nepean, ON, Canada) by shaking together for 5 minutes. The two phases were then allowed to separate by leaving the mixture to stand overnight. The upper layer (butanol) was collected with a glass pipette and 25 mL were placed in a 250 ml evaporation flask. LCO extract solutions were stored at 4° C. until evaporation. This step was conducted at 80° C. with a Yamato RE 500 Rotary Evaporator (Yamato Scientific American Inc., Orangeburge, N.Y., USA). The butanol phase was evaporated down to 2 to 3 mL. The resulting light brown material was dissolved in 4 ml of 18% acetonitrile and stored in the dark at 4° C. in a glass tube sealed with parafilm.
For HPLC analysis we used a Vydac C18 reversed—phase column (VYDAC, Hesperia, Calif., USA) with a flow rate of 1.0 mL/min and a Vydac guard column (VYDAC, Hesperia, Calif., USA). We used at least 10 min. of isocratic run with 18% acetonitrile (AcN/H2O; w/w) to establish a baseline. The baseline value was always about 0.010. When a sample was loaded we conducted an isocratic elution with 18% AcN for 45 min. This step removed all non-polar light fractions. We then applied a gradient elution (18 to 82% AcN) for 70 min. LCOs begin to appear at 84 to 86 min of HPLC run time. We used B. japonicum Nod factor (BjV (C18:1, MeFuc)) obtained from G. Stacey (University of Tennessee, Knoxville, Tenn.) as a standard. The identity of the LCO was confirmed by the Complex Carbohydrate Research Center at the University of Georgia with FAB-MS and MALDI-TOF spectrometry analysis.
There were two experiments conducted. In the first the treatments consisted of factorial combinations of two concentrations (0 and 20 μM) of two signal materials (JA and genistein (zhang and Smith, 1995)). The experiment was organized following a randomized complete block design with three blocks. In experiment 1, two temperatures were used (17 and 25° C.). […]
Each of the above experiments was conducted two times and the experimental results were pooled and analyzed statistically by analysis of variance using the Statistical Analysis System computer package (SAS Institute Inc. 1980). […] Since the effects of temperature on growth were very large, the data from two temperatures used in the first experiment were analyzed separately.

In assay [1] the test system is Bradyrhizobium japonicum USDA 3. Kind of assay: LCO production by wild type USDA3 (XAD resin extraction, HPLC). The format is cell-based. To be noted: for production of LCOs, in words: at optimum concentrations. How it is done:
Bradyrhizobium japonicum (strain USDA 3) was grown at 28° C. in yeast extract mannitol medium (YEM) (mannitol 10 g, K2HPO4 0.5 g, MgSO4.7H2O 0.2 g, NaCl 0.1 g, yeast extract 0.4 g, and distilled water 1000 ml), pH 6.8, shaken at 150 rpm until the OD620 reached 0.4-0.6 (4-6 d) in the dark. Thereafter, 2.0 l of bacterial subculture was started by inoculating with material from the first culture (5 ml of the first culture per 250 ml of YEM media), until the OD620 reached to 0.2-0.4. At this stage, methyl jasmonate, jasmonic acid and genistein were added to culture so that the final concentraton for methyl jasmonate and jasmonic acid was 5, 10, 25, 50 and 100 μM and 5 μM for genistein. The culture was incubated for 48-96 h and the LCO extracted according to the following procedure.
The LCO from the induced bacterial culture was isolated with XAD resins. Before using XAD resins for extraction, they were first conditioned. Each 40 grams of XAD resins were first washed two times with 20 mL acetone after conditioning for 15 minutes. This was followed by two washes of 20 mL methanol when the resins were conditioned for 15 minutes. Finally, the XAD resins were conditioned (5 min) and washed with 20 mL dd. water two times. The conditioned resins were placed in the refrigerator at 4° C. until use.
For each one liter of bacterial culture, 40 grams of resin was added to the flask and these were shaken together overnight at 150 rpm. The culture along with the resin was poured through a funnel into a flask fitted with a course brass mesh (fine enough to allow the culture go quickly through and filter out the resin without any loss). At this stage, the resins are washed with water. In order to extract LCO from the resin, the XAD resin was passed through a vacuum filtration system. The fritted glass base of the system was fitted with Whatman #1 paper disk with the objective to keep the solvent with the bead until vacuum is applied. The resin beads were washed two times with 40 mL methanol after conditioning for 5 minutes. […]

For assay [2], the system named is Rhizobium leguminasorum strain RBL 1284. To be noted: Rosas et al (1998); cited from earlier work.

Structures are written as SMILES.

As for `O=c1c(-c2ccc(O)cc2)coc2cc(O)cc(O)c12` [GEN, 5,7,4′-trihydroxyisoflavone], the “peak-time for LCO production” value in the assay on B. japonicum USDA 110 (after genistein was added to the cell culture) fell in the range of 8 to 10 h.
As to `CC/C=C\C[C@H]1C(=O)CC[C@@H]1CC(=O)O` [JA, [1R-[1α,2β(Z)]]-3-oxo-2-(pentenyl)cyclopentaneacetic acid], the “effect on LCO production, in words” value in the assay with B. japonicum USDA 110 (25° C., genistein present) is “not at 25 °C”; in the assay on B. japonicum USDA 110 (JA alone, without genistein, either temperature) it was “can not promote LCO production”; with B. japonicum USDA 110 (low temperature (17° C.), genistein present), “can improve LCO production”. In addition, in assay [1], the “production of LCOs, in words” value is given as “induced the production of LCOs”. Besides, in assay [2], the “expression of nod genes, in words” value is reported as “induced expression of nod genes”.
Consider `CC/C=C\CC1C(=O)CCC1CC(=O)OC` (stereo not drawn) [MeJA, methyl jasmonate], for which, in assay [1] (100 μM), the “LCO production compared with optimum genistein concentration (5 μM)” value is “substantially more LCO”. For the same compound, the “production of LCOs, in words” value in assay [1] is on record as “induced the production of LCOs”. The “expression of nod genes, in words” value in assay [2] is “induced expression of nod genes”.

(Values after patent US7262151B2, “Methods and compositions for production of lipo-chito oligosaccharides by rhizobacteria” (McGill University, priority 2001, dated 2007).)
